Assay results as given in ChEMBL document CHEMBL1148048, “Two new tryptophan-derived alkaloids from the Okinawan marine sponge Aplysina sp” (J Nat Prod, 1994).
Values after ≈ are worked out from the molar mass of the structure shown.

Legend:
L1210 = test: Cytotoxicity against mouse L1210 cells; type: functional, cell-based
KB [1] = test: Cytotoxicity against human KB cells; type: functional, cell-based
KB [2] = test: Cytotoxicity against human KB cells at 20 ug/ml; type: functional

Compound	IC50 (L1210) [µg/mL]	IC50 (KB [1]) [µg/mL]	inhibition at 20 µg/mL (KB [2]) [%]
C/N=C1\N(C)C(=O)/C(=C\c2c[nH]c3ccccc23)N1C [METHYLAPLYSINOPSIN]	3.5 (≈ 13 µM)	6.7 (≈ 25 µM)	
C/N=C1\NC(=O)/C(=C\c2c[nH]c3ccccc23)N1C [ISOPLYSIN A]	11.5 (≈ 45.2 µM)		31
CN1C(=N)N(C)/C(=C/c2c[nH]c3ccccc23)C1=O [APLYSINOPSIN]	2.3 (≈ 9.04 µM)	6.4 (≈ 25.2 µM)	
